Data on 15 molecules can be found in PMC10545747, “Development of cyclopeptide inhibitors of cGAS targeting protein-DNA interaction and phase separation” (Nature Communications, 2023).

In the experiment the target is T1, recombinant human cGAS enzyme (hcGAS-ΔN, residues 147–522) (Homo sapiens, UniProt Q8N884).
T1 construct: N-terminally truncated human cGAS (hcGAS-ΔN, residues 147–522); 6xHis-SUMO (N, cleaved yes); made in house; host or cells: Escherichia coli BL21 (DE3)
In words: RNA-based fluorescent biosensor assay of cGAS activity (2',3'-cGAMP formation), in vitro screening. The experiment is classed as biochemical. To be noted: for Remaining activity (%), Fig. 1a source data / remaining activity at 20 µM: 20 μM, replicate values; for remaining activity at 20 µM: read-out: Remaining activity (%), Fig. 1a source data; for inhibition at 20 µM: peptides screened at 20 μM, Supplementary Table 1 / Fig. S5b, read-out: Inhibition %. An excerpt: To screen direct cGAS inhibitors targeting protein-DNA interface from our developed focused library of macrocyclic peptides, we applied an RNA-based fluorescent biosensor for 2’,3’-cGAMP to detect cGAS activity in vitro (Supplementary Fig. 1a)[49]. The formation of 2’,3’-cGAMP from ATP and GTP was catalyzed by recombinant human cGAS enzyme (hcGAS-ΔN, residues 147–522, Supplementary Fig. 1b) in the presence of ISD (interferon stimulatory DNA, a 45-bp dsDNA), which was readily quantified by the RNA-based fluorescent biosensor and was further confirmed by ion exchange chromatography (Supplementary Fig. 1c). […] Subsequently, a total of 90 macrocyclic peptides were screened at a concentration of 20 μM (Fig. 1a and Supplementary Fig. 1e), and 4 hits (XQ2, XQ8, XQ19, and XQ46) were obtained for further testing at a cut-off of 40% inhibition (Supplementary Table 1). To evaluate the inhibitory effect of the hits against cGAS in cells, we employed real-time quantitative PCR (qPCR) to examine mRNA levels of IFNΒ1 in THP1 cells. The reported cGAS inhibitor RU.521 was used as the positive control, and the non-active peptide XQ28 in the screening assay was used as the negative control. […] The inhibition of cGAS by these hits was further confirmed in the reporter cell line THP1-Lucia ISG (Invivogen) that expresses secreted luciferase induced by an IRF3-inducible ISG54 promoter (Fig. 1c). The discrepancy between the inhibitory effect of the hits in protein and cellular assays may be attributed to their different cellular permeability.
The high-throughput screening (HTS) experiments of cGAS activity are based on the method previously described. To initiate the enzyme reaction, ISD was added to the reaction solution (40 mM Tris-HCl, pH 7.5, 100 mM NaCl, 10 mM MgCl2) containing hcGAS-ΔN, ATP (Sangon Biotech, Cat# A600311) and GTP (Sangon Biotech, Cat# A620332) in a total volume of 20 ul with the final concentration of 0.5 μM, 1.5 μM, 1 mM, 1 mM, respectively, and incubated for 2 h at 37 °C. For HTS experiments, compounds were added to the same reaction conditions as described above with the final concentration of 20 μM. Z’ factors were calculated from three replicates in the 384-well plate.

Where “and” joins values, the source holds several entries; their conditions need not be identical. Identical values can stand only once. Square brackets hold non-standard residues; d marks the D form. Peptide text beside a SMILES is read from it. Hyp = O=C(O)[C@@H]1C[C@@H](O)CN1

T1 sequence (Q8N884 147-522, stated change not applied): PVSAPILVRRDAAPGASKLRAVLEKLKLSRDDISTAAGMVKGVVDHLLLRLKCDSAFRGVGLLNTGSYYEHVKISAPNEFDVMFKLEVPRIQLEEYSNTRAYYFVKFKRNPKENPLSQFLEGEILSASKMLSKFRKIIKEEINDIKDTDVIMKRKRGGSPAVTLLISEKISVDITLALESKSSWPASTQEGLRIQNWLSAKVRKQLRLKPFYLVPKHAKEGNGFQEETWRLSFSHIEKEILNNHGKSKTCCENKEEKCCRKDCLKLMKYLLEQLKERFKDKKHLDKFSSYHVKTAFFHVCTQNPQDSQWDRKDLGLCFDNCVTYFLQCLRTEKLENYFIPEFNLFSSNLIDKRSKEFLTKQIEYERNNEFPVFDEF

As for `CC(C)C[C@@H]1NC(=O)[C@H](CCCNC(=N)N)NC(=O)[C@H](C(C)C)NC(=O)[C@@H]2CCCN2C(=O)[C@@H](Cc2ccccc2)NC(=O)[C@H](CC(C)C)NC(=O)[C@H](CCCNC(=N)N)NC(=O)[C@H](C(C)C)NC(=O)[C@@H]2CCCN2C(=O)[C@@H](C)NC1=O` [XQ1, Cyclo (LaPVRLfPVR)] (cyclo(L[dA]PVRL[dF]PVR)), the “Remaining activity (%), Fig. 1a source data” value (shortened to “Remaining activity (%)”) was 76.5914% and 76.7702%; the remaining activity at 20 µM is 76.9%; the inhibition at 20 µM was 23%.

For `CC(C)C[C@@H]1NC(=O)[C@H](CCCNC(=N)N)NC(=O)[C@H](C(C)C)NC(=O)[C@@H]2CCCN2C(=O)[C@@H](Cc2ccccc2)NC(=O)[C@H](CC(C)C)NC(=O)[C@H](CCCNC(=N)N)NC(=O)[C@H](C)NC(=O)[C@@H]2CCCN2C(=O)[C@@H](Cc2ccccc2)NC1=O` [XQ3, Cyclo (LfPARLfPVR)] (cyclo(ARL[dF]PVRL[dF]P)), the “Remaining activity (%)” value is 67.2186% and 66.8539%; the remaining activity at 20 µM came to 67.1%; the inhibition at 20 µM came out at 33%.

`CC(C)C[C@@H]1NC(=O)[C@H](C)NC(=O)[C@H](C(C)C)NC(=O)[C@@H]2CCCN2C(=O)[C@@H](Cc2ccccc2)NC(=O)[C@H](CC(C)C)NC(=O)[C@H](CCCNC(=N)N)NC(=O)[C@H](C(C)C)NC(=O)[C@@H]2CCCN2C(=O)[C@@H](Cc2ccccc2)NC1=O` [XQ4, Cyclo (LfPVALfPVR)] (cyclo(AL[dF]PVRL[dF]PV)): the “Remaining activity (%)” value is 84.7804% and 84.3938%; the remaining activity at 20 µM is 84.5%; the inhibition at 20 µM amounted to 16%.

As for `CC(C)C[C@@H]1NC(=O)[C@H](CCCNC(=N)N)NC(=O)[C@H](C(C)C)NC(=O)[C@@H]2CCCN2C(=O)[C@@H](Cc2ccccc2)NC(=O)[C@H](C)NC(=O)[C@H](CCCNC(=N)N)NC(=O)[C@H](C(C)C)NC(=O)[C@@H]2CCCN2C(=O)[C@@H](Cc2ccccc2)NC1=O` [XQ5, Cyclo (AfPVRLfPVR)] (cyclo(A[dF]PVRL[dF]PVR)), the “Remaining activity (%)” value is 92.0132% and 91.3002%; the remaining activity at 20 µM came out at 92.3%; the inhibition at 20 µM worked out at 8%.

In the case of `CC(C)C[C@@H]1NC(=O)[C@H](CCCNC(=N)N)NC(=O)[C@H](C(C)C)NC(=O)[C@@H]2C[C@@H](O)CN2C(=O)[C@@H](Cc2ccccc2)NC(=O)[C@H](CC(C)C)NC(=O)[C@H](CCCNC(=N)N)NC(=O)[C@H](C(C)C)NC(=O)[C@@H]2CCCN2C(=O)[C@@H](Cc2ccccc2)NC1=O` [XQ6, Cyclo (LfPVRLf(Hyp)VR)] (cyclo([Hyp]VRL[dF]PVRL[dF])), the “Remaining activity (%)” value is 68.1038% and 66.5986%; the remaining activity at 20 µM worked out at 66.6%; the inhibition at 20 µM turned out to be 32%.

`CC(C)C[C@@H]1NC(=O)[C@H](CCCNC(=N)N)NC(=O)[C@H](C(C)C)NC(=O)[C@@H]2CCCN2C(=O)[C@@H](C)NC(=O)[C@H](CC(C)C)NC(=O)[C@H](CCCNC(=N)N)NC(=O)[C@H](C(C)C)NC(=O)[C@@H]2CCCN2C(=O)[C@@H](C)NC1=O` [XQ7, Cyclo (LaPVRLaPVR)] (cyclo(L[dA]PVRL[dA]PVR)): the “Remaining activity (%)” value is 101.466% and 100.76%; the remaining activity at 20 µM came to 101%; the inhibition at 20 µM amounted to 0%.

`CC(C)C[C@@H]1NC(=O)[C@H](CCCNC(=N)N)NC(=O)[C@H](C)NC(=O)[C@@H]2CCCN2C(=O)[C@@H](Cc2ccccc2)NC(=O)[C@H](CC(C)C)NC(=O)[C@H](CCCNC(=N)N)NC(=O)[C@H](C)NC(=O)[C@@H]2CCCN2C(=O)[C@@H](Cc2ccccc2)NC1=O` [XQ9, Cyclo (LfPARLfPAR)] (cyclo(ARL[dF]PARL[dF]P)): the “Remaining activity (%)” value is 109.335% and 107.433%; the remaining activity at 20 µM is 108%; the inhibition at 20 µM turned out to be 0%.

`CC(C)[C@@H]1NC(=O)[C@@H]2CCCN2C(=O)[C@@H](Cc2ccccc2)NC(=O)[C@H](C)NC(=O)[C@H](CCCNC(=N)N)NC(=O)[C@H](C(C)C)NC(=O)[C@@H]2CCCN2C(=O)[C@@H](Cc2ccccc2)NC(=O)[C@H](C)NC(=O)[C@H](CCCNC(=N)N)NC1=O` [XQ10, Cyclo (AfPVRAfPVR)] (cyclo(A[dF]PVRA[dF]PVR)): the “Remaining activity (%)” value is 103.793% and 104.243%; the remaining activity at 20 µM was 103%; the inhibition at 20 µM stood at 0%.

As for `CC(C)C[C@@H]1NC(=O)[C@H](CCCNC(=N)N)NC(=O)[C@H](C(C)C)NC(=O)[C@@H]2CCCN2C(=O)[C@@H](Cc2c[nH]c3ccccc23)NC(=O)[C@H](CC(C)C)NC(=O)[C@H](CCCNC(=N)N)NC(=O)[C@H](C(C)C)NC(=O)[C@@H]2CCCN2C(=O)[C@@H](Cc2c[nH]c3ccccc23)NC1=O` [XQ11, Cyclo (LwPVRLwPVR)] (cyclo(L[dW]PVRL[dW]PVR)), the “Remaining activity (%)” value is 86.4291% and 86.3946%; the remaining activity at 20 µM came out at 85.2%; the inhibition at 20 µM was determined as 14%.

Regarding `CC(C)C[C@@H]1NC(=O)[C@H](CCCNC(=N)N)NC(=O)[C@H](C(C)C)NC(=O)[C@@H]2C[C@@H](O)CN2C(=O)[C@@H](Cc2ccccc2)NC(=O)[C@H](CC(C)C)NC(=O)[C@H](CCCNC(=N)N)NC(=O)[C@H](C(C)C)NC(=O)[C@@H]2C[C@@H](O)CN2C(=O)[C@@H](Cc2ccccc2)NC1=O` [XQ12, Cyclo (Lf(Hyp)VRLf(Hyp)VR)] (cyclo([Hyp]VRL[dF][Hyp]VRL[dF])), the “Remaining activity (%)” value is 93.4229% and 93.3308%; the remaining activity at 20 µM was found to be 93.7%; the inhibition at 20 µM was 7%.

Consider `CC(C)C[C@@H]1NC(=O)[C@H](CCCNC(=N)N)NC(=O)[C@H](C)NC(=O)[C@@H]2CCCN2C(=O)[C@@H](Cc2ccccc2)NC(=O)[C@H](C)NC(=O)[C@H](CCCNC(=N)N)NC(=O)[C@H](C(C)C)NC(=O)[C@@H]2CCCN2C(=O)[C@@H](Cc2ccccc2)NC1=O` [XQ13, Cyclo (AfPARLfPVR)] (cyclo(ARL[dF]PVRA[dF]P)), for which the “Remaining activity (%)” value is 92.7452% and 92.4625%; the remaining activity at 20 µM was 93.4%; the inhibition at 20 µM was found to be 7%.

As for `CC(C)C[C@@H]1NC(=O)[C@H](CCCNC(=N)N)NC(=O)[C@H](C(C)C)NC(=O)[C@@H]2CCCN2C(=O)[C@@H](C)NC(=O)[C@H](C)NC(=O)[C@H](CCCNC(=N)N)NC(=O)[C@H](C(C)C)NC(=O)[C@@H]2CCCN2C(=O)[C@@H](Cc2ccccc2)NC1=O` [XQ14, Cyclo (AaPVRLfPVR)] (cyclo(A[dA]PVRL[dF]PVR)), the “Remaining activity (%)” value was 96.1851% and 95.3459%; the remaining activity at 20 µM was found to be 96%; the inhibition at 20 µM turned out to be 4%.

Turning to `CC(C)C[C@@H]1NC(=O)[C@H](CCCNC(=N)N)NC(=O)[C@H](C(C)C)NC(=O)[C@@H]2CCCN2C(=O)[C@@H](Cc2ccccc2)NC(=O)[C@H](C)NC(=O)[C@H](CCCNC(=N)N)NC(=O)[C@H](C)NC(=O)[C@@H]2CCCN2C(=O)[C@@H](Cc2ccccc2)NC1=O` [XQ15, Cyclo (AfPVRLfPAR)] (cyclo(ARA[dF]PVRL[dF]P)), the “Remaining activity (%)” value is 110.709% and 110.469%; the remaining activity at 20 µM came to 110%; the inhibition at 20 µM stood at 0%.

For the molecule `CC(C)C[C@@H]1NC(=O)[C@H](CCCNC(=N)N)NC(=O)[C@H](C)NC(=O)[C@@H]2CCCN2C(=O)[C@@H](Cc2ccccc2)NC(=O)[C@H](C)NC(=O)[C@H](CCCNC(=N)N)NC(=O)[C@H](C)NC(=O)[C@@H]2CCCN2C(=O)[C@@H](Cc2ccccc2)NC1=O` [XQ16, Cyclo (AfPARLfPAR)] (cyclo(ARA[dF]PARL[dF]P)), the “Remaining activity (%)” value was 99.1383% and 98.554%; the remaining activity at 20 µM amounted to 98.3%; the inhibition at 20 µM was found to be 1%.

Consider `CC(C)C[C@@H]1NC(=O)[C@H](CCCNC(=N)N)NC(=O)[C@H](C(C)C)NC(=O)[C@@H]2CCCN2C(=O)[C@@H](C)NC(=O)[C@H](C)NC(=O)[C@H](CCCNC(=N)N)NC(=O)[C@H](C(C)C)NC(=O)[C@@H]2CCCN2C(=O)[C@@H](C)NC1=O` [XQ17, Cyclo (AaPVRLaPVR)] (cyclo(A[dA]PVRL[dA]PVR)), for which the “Remaining activity (%)” value is 66.7673% and 68.063%; the remaining activity at 20 µM worked out at 67.2%; the inhibition at 20 µM came out at 32%.

One may read the remaining activity as the signal under treatment as a percentage of the control signal. As usually defined, the inhibition is the percentage by which the read-out fell short of the control.
